Data published in patent US20250099596A1, “TETRAHYDRONAPHTHALENE COMPOUND, AND PREPARATION METHOD THEREFOR AND USE THEREOF IN MEDICINE” (Jiangsu Hengrui Pharmaceuticals Co., Ltd., priority 2021, published 2025).
≈ marks a conversion by molar mass, not a printed value. Like-named read-outs stand apart in the source and are kept apart here.

What was measured:
[1] = Pharmacokinetic evaluation, SD rat test; type: in vivo; settings: SD rats; for AUC(0-t): read-out: Area under curve AUC0-t; for half-life: read-out: Half-life T1/2 (converted); for Cmax: read-out: Plasma concentration Cmax
Procedure: With SD rats as test animals, the plasma concentration of the compound of Example 26-1 was determined by LC/MS/MS at different time points after intragastric (i.g.)/intravenous (i.v.) administration to SD rats. The pharmacokinetic behavior of the compound of the present disclosure in SD rats was studied and its pharmacokinetic profile was evaluated.
Eight SD rats, of which half were male and half female, were evenly divided into 2 groups. The rats were provided by Zhejiang Vital River Laboratory Animal Technology Co., Ltd. The 2 groups were fasted overnight and then dosed intragastrically and intravenously, respectively.
An appropriate amount of the compound of Example 26-1 was weighed out and mixed with 5% EtOH+95% (a 15% solution of polyethylene glycol 15-hydroxystearate prepared in a 5% aqueous solution of glucose) to make a 0.2 mg/mL colorless clear solution (for the intragastric administration group) and a 0.2 mg/mL colorless clear solution (for the intravenous administration group).
The intragastric administration group: the dose was 2.0 mg/kg, and the volume was 10.0 mL/kg.
The intravenous administration group: the dose was 1.0 mg/kg, and the volume was 5.0 mL/kg.
The intragastric administration group: Blood (0.2 mL) was collected from the orbit into EDTA-K2 anticoagulation tubes before administration and 0.25 h, 0.5 h, 1.0 h, 2.0 h, 4.0 h, 6.0 h, 8.0 h, 11.0 h and 24.0 h after administration and centrifuged at 10,000 rpm for 1 min (4° C.). The plasma was separated within 1 h and stored at −20° C. before analysis. The process from blood collection to centrifugation was performed in an ice bath. Two hours after administration, feeding was resumed.
The intravenous administration group: Blood was collected before administration and 5 min, 15 min, 0.5 h, 1.0 h, 2.0 h, 4.0 h, 8.0 h, 11.0 h and 24 h after administration and processed as in the intragastric administration group.
The plasma concentration of the test compound was determined after administration of different concentrations of the test compound to SD rats: plasma samples (25 μL) were collected from SD rats at various time points after administration, and 50 μL of camptothecin (100 ng/mL) was added to each of the samples; proteins were precipitated with 200 μL of acetonitrile; the mixtures were vortexed for 5 min and centrifuged at 4000 rpm for 10 min. 1 μL of supernatant was collected for LC/MS/MS analysis.

[2] = Solubility in FassIF and FessIF solution; type: physicochemical; settings: thermodynamic from solid
Procedure: Solution (A): 4.441 g of NaH2PO4·2H2O, 0.348 g of NaOH granules and 6.186 g of NaCl were added to 900 mL of ultrapure water and well mixed, and the solution was adjusted to pH 6.5±0.05 with 1 M NaOH, brought to volume (1000 mL) with water, and stored at 4° C. for future use.
FaSSIF solution (B): 0.161 g of sodium taurocholate (NaTC) and 59 mg of lecithin were dissolved in 20 mL of solution (A). The resulting solution was vigorously stirred overnight to form a clear micellar solution, and solution (A) was added to make a volume of 100 mL. The resulting solution was stored at 4° C. for future use (not more than 2 weeks).
Solution (A): 20.2 g of NaOH granules, 43.25 g of acetic acid and 59.37 g of sodium chloride were precisely weighed out and dissolved in a proper amount of ultrapure water. The solution was brought to volume (5 L), adjusted to pH 5.0 with 1 M NaOH or 1 M HCl, and stored at 4° C. for future use.
FeSSIF solution (B): 0.80652 g of sodium taurocholate (NaTC) and 295.5 mg of lecithin were dissolved in 25 mL of solution (A). […]
3.1. […] 10 μL of the stock solution (concentration 10 mM, dissolved in DMSO) was precisely measured out and well mixed with 990 μL of an organic solvent mixture (usually DMSO:acetonitrile:ethanol=1:1:1) in a 2 mL sample flask to obtain a 100 μM clear sample solution as a reference solution. […]

[3] = both sexes, rat, plasma, iv, i.v., 1.0 mg/kg
[4] = both sexes, rat, plasma, po, i.g., 2.0 mg/kg

Clearance CL/F ([1]; i.v., 1.0 mg/kg): 6.4 mL/min/kg | AUC(0-t) [1, 3]: 2640 ng·h/mL | half-life [1, 3]: 4.8 h | Cmax [1, 3]: 4040 ng/mL | Vd/F ([1]; both sexes, rat, plasma, po, i.g., 2.0 mg/kg, read-out: Apparent distribution volume Vz/F): 38.5 L/kg | AUC(0-t) [1, 4]: 302 ng·h/mL | CL/F ([1]; both sexes, rat, plasma, po, i.g., 2.0 mg/kg, read-out: Clearance CL/F): 102 mL/min/kg | half-life [1, 4]: 4.4 h | Cmax [1, 4]: 32.9 ng/mL | solubility at 24 h ([2]; FassIF solution pH 6.5, 37° C., read-out: Solubility in FassIF solution): 97 µM (≈ 68.3 µg/mL) | solubility at 24 h ([2]; FessIF solution pH 5.0, 37° C., read-out: Solubility in FessIF solution): 553 µM (≈ 389 µg/mL)
SMILES: CC(C)C[C@H]1CCc2cc(O)ccc2[C@H]1c1ccc(N2CCC(CN3CCN(c4ccc5c(c4)CN([C@H]4CCC(=O)NC4=O)C5=O)CC3)CC2)cc1 [Example 26-1, (S)-3-(5-(4-((1-(4-((1R,2R)-6-Hydroxy-2-isobutyl-1,2,3,4-tetrahydronaphthalen-1-yl)phenyl)piperidin-4-yl)methyl)piperazin-1-yl)-1-oxoisoindolin-2-yl)piperidine-2,6-dione]
